According to the NIST ThermoML archive (doi:10.1016/j.fluid.2004.09.013):
± gives the expanded uncertainty stated by the source.

Details: for mass density: Fluid (supercritical or subcritical phases), Vibrating tube method; for vapor or sublimation pressure: Liquid

C=CCC [1-butene]
mass density (273.24 K, 612 kPa): 619.16 ± 1.2 kg/m3 | mass density (273.24 K, 4987 kPa): 624.98 ± 1.3 kg/m3 | mass density (273.24 K, 9990 kPa): 631.06 ± 1.3 kg/m3 | mass density (273.24 K, 15004 kPa): 636.64 ± 1.3 kg/m3 | mass density (273.24 K, 20005 kPa): 641.81 ± 1.4 kg/m3 | mass density (273.24 K, 24989 kPa): 646.61 ± 1.4 kg/m3 | mass density (273.24 K, 29996 kPa): 651.13 ± 1.4 kg/m3 | mass density (273.24 K, 34991 kPa): 655.38 ± 1.4 kg/m3 | mass density (273.24 K, 39998 kPa): 659.41 ± 1.5 kg/m3 | mass density (278.25 K, 610 kPa): 613.23 ± 1.2 kg/m3 | mass density (278.25 K, 4982 kPa): 619.35 ± 1.3 kg/m3 | mass density (278.25 K, 9991 kPa): 625.73 ± 1.3 kg/m3 | mass density (278.25 K, 14984 kPa): 631.55 ± 1.3 kg/m3 | mass density (278.25 K, 20001 kPa): 636.92 ± 1.3 kg/m3 | mass density (278.25 K, 24985 kPa): 641.91 ± 1.4 kg/m3 | mass density (278.25 K, 30007 kPa): 646.61 ± 1.4 kg/m3 | mass density (278.25 K, 34997 kPa): 650.99 ± 1.4 kg/m3 | mass density (278.25 K, 39995 kPa): 655.14 ± 1.5 kg/m3 | mass density (283.26 K, 610 kPa): 607.22 ± 1.2 kg/m3 | mass density (283.26 K, 4984 kPa): 613.69 ± 1.2 kg/m3 | mass density (283.26 K, 9995 kPa): 620.39 ± 1.3 kg/m3 | mass density (283.26 K, 15000 kPa): 626.47 ± 1.3 kg/m3 | mass density (283.26 K, 19989 kPa): 632.05 ± 1.3 kg/m3 | mass density (283.26 K, 24987 kPa): 637.22 ± 1.4 kg/m3 | mass density (283.26 K, 30013 kPa): 642.08 ± 1.4 kg/m3 | mass density (283.26 K, 35003 kPa): 646.62 ± 1.4 kg/m3 | mass density (283.26 K, 39990 kPa): 650.88 ± 1.4 kg/m3 | mass density (288.27 K, 611 kPa): 601.14 ± 1.2 kg/m3 | mass density (288.27 K, 14998 kPa): 621.36 ± 1.3 kg/m3 | mass density (288.28 K, 4990 kPa): 607.98 ± 1.2 kg/m3 | mass density (288.28 K, 9997 kPa): 615.01 ± 1.3 kg/m3 | mass density (288.28 K, 19990 kPa): 627.16 ± 1.3 kg/m3 | mass density (288.28 K, 24993 kPa): 632.55 ± 1.4 kg/m3 | mass density (288.28 K, 30009 kPa): 637.56 ± 1.4 kg/m3 | mass density (288.28 K, 35002 kPa): 642.25 ± 1.4 kg/m3 | mass density (288.28 K, 39995 kPa): 646.65 ± 1.4 kg/m3 | vapor or sublimation pressure (289.42 K): 225.85 ± 0.89 kPa | mass density (293.29 K, 611 kPa): 594.95 ± 1.2 kg/m3 | mass density (293.29 K, 4994 kPa): 602.2 ± 1.2 kg/m3 | mass density (293.29 K, 9995 kPa): 609.58 ± 1.3 kg/m3 | mass density (293.29 K, 14989 kPa): 616.2 ± 1.3 kg/m3 | mass density (293.29 K, 19984 kPa): 622.26 ± 1.3 kg/m3 | mass density (293.29 K, 24990 kPa): 627.84 ± 1.5 kg/m3 | mass density (293.29 K, 29991 kPa): 633.02 ± 1.4 kg/m3 | mass density (293.29 K, 34994 kPa): 637.87 ± 1.4 kg/m3 | mass density (293.29 K, 39994 kPa): 642.42 ± 1.4 kg/m3 | vapor or sublimation pressure (294 K): 260.86 ± 1 kPa | mass density (298.3 K, 613 kPa): 588.66 ± 1.2 kg/m3 | mass density (298.3 K, 4990 kPa): 596.33 ± 1.2 kg/m3 | mass density (298.3 K, 10001 kPa): 604.11 ± 1.2 kg/m3 | mass density (298.3 K, 14994 kPa): 611.04 ± 1.3 kg/m3 | mass density (298.3 K, 19995 kPa): 617.35 ± 1.3 kg/m3 | mass density (298.3 K, 24993 kPa): 623.14 ± 1.3 kg/m3 | mass density (298.3 K, 30005 kPa): 628.51 ± 1.4 kg/m3 | mass density (298.3 K, 35015 kPa): 633.51 ± 1.4 kg/m3 | mass density (298.3 K, 40003 kPa): 638.19 ± 1.4 kg/m3 | vapor or sublimation pressure (301.73 K): 329.59 ± 1.2 kPa | mass density (303.31 K, 661 kPa): 582.33 ± 1.2 kg/m3 | mass density (303.31 K, 9983 kPa): 598.56 ± 1.2 kg/m3 | mass density (303.31 K, 15001 kPa): 605.85 ± 1.3 kg/m3 | mass density (303.31 K, 19987 kPa): 612.4 ± 1.3 kg/m3 | mass density (303.31 K, 24994 kPa): 618.42 ± 1.3 kg/m3 | mass density (303.31 K, 30008 kPa): 623.99 ± 1.4 kg/m3 | mass density (303.31 K, 35004 kPa): 629.15 ± 1.4 kg/m3 | mass density (303.32 K, 4995 kPa): 590.39 ± 1.2 kg/m3 | mass density (303.32 K, 40006 kPa): 633.97 ± 1.4 kg/m3 | vapor or sublimation pressure (306.48 K): 378.14 ± 1.4 kPa | mass density (308.32 K, 4985 kPa): 584.34 ± 1.2 kg/m3 | mass density (308.32 K, 9991 kPa): 592.99 ± 1.2 kg/m3 | mass density (308.32 K, 14996 kPa): 600.61 ± 1.3 kg/m3 | mass density (308.32 K, 19992 kPa): 607.46 ± 1.3 kg/m3 | mass density (308.32 K, 25004 kPa): 613.71 ± 1.3 kg/m3 | mass density (308.32 K, 30007 kPa): 619.45 ± 1.4 kg/m3 | mass density (308.32 K, 34999 kPa): 624.79 ± 1.4 kg/m3 | mass density (308.32 K, 40000 kPa): 629.76 ± 1.4 kg/m3 | mass density (308.33 K, 713 kPa): 575.87 ± 1.2 kg/m3 | mass density (313.2 K, 947 kPa): 569.83 ± 1.2 kg/m3 | mass density (313.2 K, 4992 kPa): 578.34 ± 1.2 kg/m3 | mass density (313.2 K, 9990 kPa): 587.43 ± 1.2 kg/m3 | mass density (313.2 K, 14997 kPa): 595.4 ± 1.2 kg/m3 | mass density (313.2 K, 19994 kPa): 602.53 ± 1.3 kg/m3 | mass density (313.2 K, 24994 kPa): 609.01 ± 1.3 kg/m3 | mass density (313.2 K, 30011 kPa): 614.95 ± 1.4 kg/m3 | mass density (313.2 K, 35009 kPa): 620.44 ± 1.4 kg/m3 | mass density (313.2 K, 39997 kPa): 625.59 ± 1.4 kg/m3 | vapor or sublimation pressure (315.34 K): 484.39 ± 1.8 kPa | mass density (318.21 K, 1037 kPa): 563.26 ± 1.1 kg/m3 | mass density (318.21 K, 5017 kPa): 572.17 ± 1.2 kg/m3 | mass density (318.21 K, 10015 kPa): 581.78 ± 1.2 kg/m3 | mass density (318.21 K, 15007 kPa): 590.11 ± 1.2 kg/m3 | mass density (318.21 K, 20018 kPa): 597.56 ± 1.3 kg/m3 | mass density (318.21 K, 25018 kPa): 604.28 ± 1.3 kg/m3 | mass density (318.21 K, 30002 kPa): 610.4 ± 1.4 kg/m3 | mass density (318.21 K, 35001 kPa): 616.07 ± 1.4 kg/m3 | mass density (318.21 K, 39996 kPa): 621.35 ± 1.4 kg/m3 | vapor or sublimation pressure (321.69 K): 572.17 ± 2.1 kPa | mass density (323.21 K, 1110 kPa): 556.48 ± 1.1 kg/m3 | mass density (323.21 K, 9982 kPa): 575.95 ± 1.2 kg/m3 | mass density (323.21 K, 14984 kPa): 584.73 ± 1.2 kg/m3 | mass density (323.21 K, 25001 kPa): 599.51 ± 1.3 kg/m3 | mass density (323.21 K, 30001 kPa): 605.88 ± 1.4 kg/m3 | mass density (323.21 K, 34994 kPa): 611.74 ± 1.4 kg/m3 | mass density (323.21 K, 40004 kPa): 617.19 ± 1.4 kg/m3 | mass density (323.22 K, 5006 kPa): 565.82 ± 1.2 kg/m3 | mass density (323.22 K, 19997 kPa): 592.52 ± 1.3 kg/m3 | mass density (328.22 K, 1187 kPa): 549.53 ± 1.1 kg/m3 | mass density (328.22 K, 4989 kPa): 559.32 ± 1.1 kg/m3 | mass density (328.22 K, 9998 kPa): 570.14 ± 1.2 kg/m3 | mass density (328.22 K, 14996 kPa): 579.36 ± 1.2 kg/m3 | mass density (328.22 K, 19992 kPa): 587.47 ± 1.3 kg/m3 | mass density (328.22 K, 25011 kPa): 594.75 ± 1.3 kg/m3 | mass density (328.22 K, 30003 kPa): 601.33 ± 1.3 kg/m3 | mass density (328.22 K, 34986 kPa): 607.37 ± 1.4 kg/m3 | mass density (328.22 K, 40001 kPa): 613 ± 1.4 kg/m3 | vapor or sublimation pressure (329.51 K): 695.71 ± 2.5 kPa
